Experimental data published in US20220089612A1, “HETEROCYCLIC COMPOUNDS AS PRMT5 INHIBITORS” (ANGEX PHARMACEUTICAL, INC., priority 2017, published 2022).
pIC50: −log10 of the molar value.

The compounds below were run against PRMT5:MEP50 (Homo sapiens, UniProt O14744) (assay: PRMT5:MEP50 Flashplate Assay). Conditions: PRMT5:MEP50 inhibitory activity; 3H-SAM, 2 h at room temperature, top concentration 10 μM.
PRMT5:MEP50, sequence (O14744 whole entry, species assumed): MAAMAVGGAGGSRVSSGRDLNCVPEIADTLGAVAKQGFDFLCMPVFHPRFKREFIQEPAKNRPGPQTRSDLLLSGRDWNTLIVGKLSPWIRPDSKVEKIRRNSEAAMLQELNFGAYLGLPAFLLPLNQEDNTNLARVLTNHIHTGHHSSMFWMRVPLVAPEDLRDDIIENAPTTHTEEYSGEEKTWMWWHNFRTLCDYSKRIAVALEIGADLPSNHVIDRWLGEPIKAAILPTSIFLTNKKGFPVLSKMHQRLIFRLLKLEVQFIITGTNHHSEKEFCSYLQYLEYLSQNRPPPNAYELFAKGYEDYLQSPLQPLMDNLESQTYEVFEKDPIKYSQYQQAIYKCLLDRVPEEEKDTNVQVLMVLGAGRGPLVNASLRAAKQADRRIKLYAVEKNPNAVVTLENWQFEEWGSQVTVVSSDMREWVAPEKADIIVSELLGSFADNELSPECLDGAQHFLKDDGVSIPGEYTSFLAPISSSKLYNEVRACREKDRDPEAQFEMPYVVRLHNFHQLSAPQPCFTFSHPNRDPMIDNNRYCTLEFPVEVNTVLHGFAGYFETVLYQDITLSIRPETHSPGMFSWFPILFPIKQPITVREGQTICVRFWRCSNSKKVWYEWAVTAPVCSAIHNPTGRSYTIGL
PRMT5:MEP50, sequence (Q9BQA1 whole entry partner, species assumed): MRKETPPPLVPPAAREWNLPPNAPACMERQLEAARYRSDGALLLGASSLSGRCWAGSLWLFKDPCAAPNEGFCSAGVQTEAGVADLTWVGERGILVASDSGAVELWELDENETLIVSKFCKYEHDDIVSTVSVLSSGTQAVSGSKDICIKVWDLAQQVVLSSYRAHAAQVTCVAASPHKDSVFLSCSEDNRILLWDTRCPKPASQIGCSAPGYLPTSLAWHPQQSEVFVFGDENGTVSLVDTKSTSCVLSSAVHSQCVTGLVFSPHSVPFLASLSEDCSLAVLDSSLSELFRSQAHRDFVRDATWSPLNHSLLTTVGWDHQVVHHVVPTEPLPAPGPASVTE
Format: biochemical
Procedure: PRMT5:MEP50 Flashplate Assay:
Ten-point curves of inhibitor compounds were made using serial threefold dilutions in DMSO (the final top concentration of compound was 10 μM, 1% DMSO). Reaction mixture consisting of 50 mM Tris-HCl (pH 8.5), 0.002% Tween 20, 0.005% BSA (Bovine Serum Albumin), 1 mM TCEP, and 1% DMSO. Substrates are freshly prepared in reaction buffer. PRMT5:MEP50 was then added into substrate solution and mixed gently. Inhibitor compound was then added and incubated for 30 min at room temperature. ^3H-SAM was added to initiate the reaction. Reactions were incubated for 2 h at room temperature and quenched with 0.5 mM SAM (S-adenosyl-L-Methionine) in assay buffer. An aliquot of the reaction mix was transferred to a streptavidin-coated 384-well FlashPlate (PerkinElmer). After an incubation time of 1 h, the plate was washed and then read on a TopCount (PerkinElmer) to measure the amount of tritium incorporated into the peptide substrate. IC50 was calculated using conventional curve-fitting method.
`Nc1ncnc2c1ccn2[C@@H]1C[C@H](CCc2ccc3cc4c(nc3c2)N[C@H](CC2CC2)C4)[C@@H](O)[C@H]1O` [Compound 1-29, (1R,2S,3R,5S)-3-(4-amino-7H-pyrrolo[2,3-d]pyrimidin-7-yl)-5-(2-((R)-2-(cyclopropylmethyl)-2,3-dihydro-1H-pyrrolo[2,3-b]quinolin-7-yl)ethyl)cyclopentane-1,2-diol] gave a pIC50 of 7.00 to 9.00.
With `CC[C@@H]1Cc2cc3ccc(CC[C@H]4C[C@@H](n5ccc6c(N)ncnc65)[C@H](O)[C@@H]4O)cc3nc2N1` [Compound 1-24, (1R,2S,3R,5S)-3-(4-amino-7H-pyrrolo[2,3-d]pyrimidin-7-yl)-5-(2-((R)-2-ethyl-2,3-dihydro-1H-pyrrolo[2,3-b]quinolin-7-yl)ethyl)cyclopentane-1,2-diol] the pIC50 was greater than 9.00.
`Nc1ncnc2c1ccn2[C@@H]1C[C@H](CCc2ccc3cc4c(nc3c2)NOC4)[C@@H](O)[C@H]1O` [Compound 1-14, (1R,2S,3R,5S)-3-(4-amino-7H-pyrrolo[2,3-d]pyrimidin-7-yl)-5-(2-(1,3-dihydroisoxazolo[3,4-b]quinolin-7-yl)ethyl)cyclopentane-1,2-diol] gave a pIC50 greater than 9.00.
`CC(C)(C)[C@@H]1Cc2cc3ccc(CC[C@H]4C[C@@H](n5ccc6c(N)ncnc65)[C@H](O)[C@@H]4O)cc3nc2N1` [Compound 1-26, (1R,2S,3R,5S)-3-(4-amino-7H-pyrrolo[2,3-d]pyrimidin-7-yl)-5-(2-((S)-2-(tert-butyl)-2,3-dihydro-1H-pyrrolo[2,3-b]quinolin-7-yl)ethyl)cyclopentane-1,2-diol] was tested, and the pIC50 was greater than 9.00.
Compound `Nc1ncnc2c1ccn2[C@@H]1O[C@H](CCc2ccc3cc4c(nc3c2)NCCC4)[C@@H](O)[C@H]1O` [Compound 3-13, (2R,3R,4S,5R)-2-(4-amino-7H-pyrrolo[2,3-d]pyrimidin-7-yl)-5-(2-(1,2,3,4-tetrahydrobenzo[b][1,8]naphthyridin-8-yl)ethyl)tetrahydrofuran-3,4-diol] has a pIC50 greater than 9.00.
Work on `Nc1ncnc2c1ccn2[C@@H]1C[C@H](CCc2ccc3cc4nc[nH]c4nc3c2)[C@@H](O)[C@H]1O` [Compound 1-18, (1S,2R,3S,5R)-3-(2-(3H-imidazo[4,5-b]quinolin-6-yl)ethyl)-5-(4-amino-7H-pyrrolo[2,3-d]pyrimidin-7-yl)cyclopentane-1,2-diol] yielded a pIC50 greater than 9.00.
`CC1(C)CNc2nc3cc(CC[C@H]4C[C@@H](n5ccc6c(N)ncnc65)[C@H](O)[C@@H]4O)ccc3cc21` [Compound 2-3, (1R,2S,3R,5S)-3-(4-amino-7H-pyrrolo[2,3-d]pyrimidin-7-yl)-5-(2-(3,3-dimethyl-2,3-dihydro-1H-pyrrolo[2,3-b]quinolin-7-yl)ethyl)cyclopentane-1,2-diol] was tested, and the pIC50 was greater than 9.00.
`Nc1ncnc2c1ccn2[C@@H]1C[C@H](CCc2ccc3cc4cn[nH]c4nc3c2)[C@@H](O)[C@H]1O` [Compound 1-12, (1S,2R,3S,5R)-3-(2-(1H-pyrazolo[3,4-b]quinolin-7-yl)ethyl)-5-(4-amino-7H-pyrrolo-[2,3-d]pyrimidin-7-yl)cyclopentane-1,2-diol] was tested, and the pIC50 was 7.00 to 9.00.
Work on `Nc1ncnc2c1ccn2[C@@H]1C[C@H](CCc2ccc3cc4c(nc3c2)NCC4)[C@@H](O)[C@H]1O` [Compound 1-7, (1R,2S,3R,5S)-3-(4-amino-7H-pyrrolo[2,3-d]pyrimidin-7-yl)-5-(2-(2,3-dihydro-1H-pyrrolo[2,3-b]quinolin-7-yl)ethyl)cyclopentane-1,2-diol] yielded a pIC50 greater than 9.00.
With `Nc1ncnc2c1ccn2[C@@H]1C[C@H](CCc2ccc3cc4c(nc3c2)N[C@H](C2CCC2)CC4)[C@@H](O)[C@H]1O` [Compound 1-40, (1R,2S,3R,5S)-3-(4-amino-7H-pyrrolo[2,3-d]pyrimidin-7-yl)-5-(2-((S)-2-cyclobutyl-1,2,3,4-tetrahydrobenzo[b][1,8]naphthyridin-8-yl)ethyl)cyclopentane-1,2-diol] the pIC50 was 7.00 to 9.00.
`Nc1ncnc2c1ccn2[C@@H]1C[C@H](CCc2ccc3cc4c(nc3c2)NCCC4)[C@@H](O)[C@H]1O` [Compound 1-35, (1R,2S,3R,5S)-3-(4-amino-7H-pyrrolo[2,3-d]pyrimidin-7-yl)-5-(2-(1,2,3,4-tetrahydrobenzo[b][1,8]naphthyridin-8-yl)ethyl)cyclopentane-1,2-diol] gave a pIC50 greater than 9.00.
`NC1=Nc2cc(CC[C@H]3C[C@@H](n4ccc5c(N)ncnc54)[C@H](O)[C@@H]3O)ccc2[C@@H]2C[C@H]12` (single isomer, unassigned) [Compound 1-10] gave a pIC50 greater than 9.00.
Work on `Nc1ncnc2c1ccn2[C@@H]1C[C@H](CCc2ccc3cc4c(=O)n(-c5ccccc5)[nH]c4nc3c2)[C@@H](O)[C@H]1O` [Compound 1-33, 7-(2-((1S,2R,3S,4R)-4-(4-amino-7H-pyrrolo[2,3-d]pyrimidin-7-yl)-2,3-dihydroxycyclopentyl)ethyl)-2-phenyl-1,2-dihydro-3H-pyrazolo[3,4-b]quinolin-3-one] yielded a pIC50 of less than 7.00.
`NC1=Nc2cc(CC[C@H]3C[C@@H](n4ccc5c(N)ncnc54)[C@H](O)[C@@H]3O)ccc2[C@H]2C[C@@H]12` (single isomer, unassigned) [Compound 1-11] showed a pIC50 greater than 9.00.
`CC1(C)CNc2nc3cc(CC[C@H]4O[C@@H](n5ccc6c(N)ncnc65)[C@H](O)[C@@H]4O)ccc3cc21` [Compound 3-9, (2R,3R,4S,5R)-2-(4-amino-7H-pyrrolo[2,3-d]pyrimidin-7-yl)-5-(2-(3,3-dimethyl-2,3-dihydro-1H-pyrrolo[2,3-b]quinolin-7-yl)ethyl)tetrahydrofuran-3,4-diol] was tested, and the pIC50 was 7.00 to 9.00.
With `Nc1ncnc2c1ccn2[C@@H]1C[C@H](CCc2ccc3cc4c(nc3c2)NC2(CC2)C4)[C@@H](O)[C@H]1O` [Compound 1-31, (1R,2S,3R,5S)-3-(4-amino-7H-pyrrolo[2,3-d]pyrimidin-7-yl)-5-(2-(1′,3′-dihydrospiro[cyclopropane-1,2′-pyrrolo[2,3-b]quinolin]-7′-yl)ethyl)cyclopentane-1,2-diol] the pIC50 was greater than 9.00.
For `Nc1ncnc2c1ccn2[C@@H]1C[C@H](CCc2ccc3cc4c(nc3c2)N[C@H](C2CC2)CC4)[C@@H](O)[C@H]1O` [Compound 1-38, (1R,2S,3R,5S)-3-(4-amino-7H-pyrrolo[2,3-d]pyrimidin-7-yl)-5-(2-((S)-2-cyclopropyl-1,2,3,4-tetrahydrobenzo[b][1,8]naphthyridin-8-yl)ethyl)cyclopentane-1,2-diol], the pIC50 was greater than 9.00.
For `Nc1ncnc2c1ccn2[C@@H]1C[C@H](CCc2ccc3cc4cc[nH]c4nc3c2)[C@@H](O)[C@H]1O` [Compound 4-3, (1S,2R,3S,5R)-3-(2-(1H-pyrrolo[2,3-b]quinolin-7-yl)ethyl)-5-(4-amino-7H-pyrrolo[2,3-d]pyrimidin-7-yl)cyclopentane-1,2-diol], the pIC50 was 7.00 to 9.00.
For `Nc1ncnc2c1ccn2[C@@H]1C[C@H](CCc2ccc3cc4c(nc3c2)NCCCC4)[C@@H](O)[C@H]1O` [Compound 1-41, (1R,2S,3R,5S)-3-(4-amino-7H-pyrrolo[2,3-d]pyrimidin-7-yl)-5-(2-(2,3,4,5-tetrahydro-1H-azepino[2,3-b]quinolin-9-yl)ethyl)cyclopentane-1,2-diol], the pIC50 was greater than 9.00.
In the case of `C[C@H]1Cc2cc3ccc(CC[C@H]4C[C@@H](n5ccc6c(N)ncnc65)[C@H](O)[C@@H]4O)cc3nc2NO1` [Compound 1-15, (1R,2S,3R,5S)-3-(4-amino-7H-pyrrolo[2,3-d]pyrimidin-7-yl)-5-(2-((S)-3-methyl-3,4-dihydro-1H-[1,2]oxazino[3,4-b]quinolin-8-yl)ethyl)cyclopentane-1,2-diol], the pIC50 was 7.00 to 9.00.
`Nc1ncnc2c1ccn2[C@@H]1C[C@H](CCc2ccc3cc4c(nc3c2)N[C@H](c2ccccc2)C4)[C@@H](O)[C@H]1O` [Compound 1-28, (1R,2S,3R,5S)-3-(4-amino-7H-pyrrolo[2,3-d]pyrimidin-7-yl)-5-(2-((S)-2-phenyl-2,3-dihydro-1H-pyrrolo[2,3-b]quinolin-7-yl)ethyl)cyclopentane-1,2-diol] showed a pIC50 of 7.00 to 9.00.
Work on `Nc1ncnc2c1ccn2[C@@H]1C[C@H](CCc2ccc3cc4c(=O)[nH][nH]c4nc3c2)[C@@H](O)[C@H]1O` [Compound 1-32, 7-(2-((1S,2R,3S,4R)-4-(4-amino-7H-pyrrolo[2,3-d]pyrimidin-7-yl)-2,3-dihydroxycyclopentyl)ethyl)-1,2-dihydro-3H-pyrazolo[3,4-b]quinolin-3-one] yielded a pIC50 of 7.00 to 9.00.
`CC1(C)Cc2cc3ccc(CC[C@H]4C[C@@H](n5ccc6c(N)ncnc65)[C@H](O)[C@@H]4O)cc3nc2N1` [Compound 1-30, (1R,2S,3R,5S)-3-(4-amino-7H-pyrrolo[2,3-d]pyrimidin-7-yl)-5-(2-(2,2-dimethyl-2,3-dihydro-1H-pyrrolo[2,3-b]quinolin-7-yl)ethyl)cyclopentane-1,2-diol] showed a pIC50 greater than 9.00.
In the case of `Nc1ncnc2c1ccn2[C@@H]1C[C@H](CCc2ccc3cc4c(nc3c2)NOCCC4)[C@@H](O)[C@H]1O` [Compound 1-17, (1R,2S,3R,5S)-3-(4-amino-7H-pyrrolo[2,3-d]pyrimidin-7-yl)-5-(2-(1,3,4,5-tetrahydro-[1,2]oxazepino[3,4-b]quinolin-9-yl)ethyl)cyclopentane-1,2-diol], the pIC50 was 7.00 to 9.00.
For `Nc1ncnc2c1ccn2[C@@H]1O[C@H](CCc2ccc3cc4c(nc3c2)NCC4)[C@@H](O)[C@H]1O` [Compound 3-8, (2R,3R,4S,5R)-2-(4-amino-7H-pyrrolo[2,3-d]pyrimidin-7-yl)-5-(2-(2,3-dihydro-1H-pyrrolo[2,3-b]quinolin-7-yl)ethyl)tetrahydrofuran-3,4-diol], the pIC50 was 7.00 to 9.00.
In the case of `C[C@@H]1Cc2cc3ccc(CC[C@H]4C[C@@H](n5ccc6c(N)ncnc65)[C@H](O)[C@@H]4O)cc3nc2NO1` [Compound 1-16, (1R,2S,3R,5S)-3-(4-amino-7H-pyrrolo[2,3-d]pyrimidin-7-yl)-5-(2-((R)-3-methyl-3,4-dihydro-1H-[1,2]oxazino[3,4-b]quinolin-8-yl)ethyl)cyclopentane-1,2-diol], the pIC50 was greater than 9.00.
